Reference: ChEMBL document CHEMBL6182831, “Thiazole-fused androstenone and ethisterone derivatives: potent β- and γ-actin cytoskeleton inhibitors to treat melanoma tumors” (RSC Med Chem, 2025)
Active and inactive are the calls of the source. The rule behind the calls is not given here.

Key:
B16-F10 [1] = assay: Cytotoxicity against mouse B16-F10 cells assessed as inhibition of cell growth incubated for 24 hrs by resazurin staining based analysis; type: functional; conditions: B16-F10, 24 h
LOX IMVI [2] = assay: Cytotoxicity against human LOX IMVI cells assessed as inhibition of cell growth incubated for 24 hrs by resazurin staining based analysis; type: functional
SK-MEL-28 [3] = assay: Cytotoxicity against human SK-MEL-28 cells assessed as inhibition of cell growth incubated for 24 hrs by resazurin staining based analysis; type: functional; conditions: SK-MEL-28, 24 h
SK-MEL-25 = assay: Cytotoxicity against human SK-MEL-25 cells assessed as inhibition of cell growth incubated for 24 hrs by resazurin staining based analysis; type: functional; conditions: SK-MEL-25, 24 h
SK-MEL-5 = assay: Cytotoxicity against human SK-MEL-5 cells assessed as inhibition of cell growth incubated for 24 hrs by resazurin staining based analysis; type: functional; conditions: SK-MEL-5, 24 h
B16-F10 [4] = assay: Antitumor activity against mouse B16-F10 cells implanted in C57BL/6 mouse assessed as reduction of tumor weight at 40 mg/kg, ip administered once daily from 6 to 12 days and every alternate days till 18; type: functional, organism-based; conditions: time 13.0 day
[5] = Toxicity in C57BL/6 mouse assessed as animal survival at 40 mg/kg, ip administered once daily from 6 to 9 days and every alternate days till 18; type: organism-based; conditions: in vivo, time 13 day
[6] = Toxicity in C57BL/6 mouse assessed as animal survival at 40 mg/kg, ip administered once daily from 6 to 9 days and every alternate days till 19; type: organism-based; conditions: in vivo, time 14 day
[7] = Toxicity in C57BL/6 mouse assessed as change in body weight at 40 mg/kg, ip administered once daily and measured up to 20 days; type: organism-based; conditions: in vivo, 480 h, time < 20 day
[8] = Toxicity in C57BL/6 mouse assessed as change in albumin level at 40 mg/kg, ip administered once daily and measured up to 20 days; type: organism-based; conditions: in vivo, 480 h, time < 20 day
[9] = Toxicity in C57BL/6 mouse assessed as change in ALP level at 40 mg/kg, ip administered once daily and measured up to 20 days; type: organism-based; conditions: in vivo, 480 h, time < 20 day
[10] = Toxicity in C57BL/6 mouse assessed as change in ALT level at 40 mg/kg, ip administered once daily and measured up to 20 days; type: organism-based; conditions: in vivo, 480 h, time < 20 day
[11] = Toxicity in C57BL/6 mouse assessed as change in BUN level at 40 mg/kg, ip administered once daily and measured up to 20 days; type: organism-based; conditions: in vivo, 480 h, time < 20 day
[12] = Toxicity in C57BL/6 mouse assessed as change in creatinine level at 40 mg/kg, ip administered once daily and measured up to 20 days; type: organism-based; conditions: in vivo, 480 h, time < 20 day
[13] = Toxicity in C57BL/6 mouse assessed as change in total bilirubin level at 40 mg/kg, ip administered once daily and measured up to 20 days; type: organism-based; conditions: in vivo, 480 h, time < 20 day
[14] = Toxicity in C57BL/6 mouse assessed as change in amylase level at 40 mg/kg, ip administered once daily and measured up to 20 days; type: organism-based; conditions: in vivo, 480 h, time < 20 day
B16-F10 [15] = assay: Inhibition of cell migration in mouse B16-F10 cells at 2 uM incubated for 24 hrs by wound healing assay; type: functional, cell-based
SK-MEL-28 [16] = assay: Inhibition of cell migration in human SK-MEL-28 cells at 1.2 uM incubated for 24 hrs by wound healing assay; type: functional, cell-based
B16-F10 [17] = assay: Inhibition of cell adhesion in mouse B16-F10 cells at 2.5 uM incubated for 1.5 hrs; type: functional, cell-based
SK-MEL-28 [18] = assay: Inhibition of cell adhesion in human SK-MEL-28 cells at 2.5 uM incubated for 1.5 hrs; type: functional, cell-based
B16-F10 [19] = assay: Inhibition of cell adhesion in mouse B16-F10 cells assessed as reduction in number of adherent cells incubated for 1.5 hrs; type: functional, cell-based
SK-MEL-28 [20] = assay: Inhibition of cell adhesion in human SK-MEL-28 cells assessed as reduction in number of adherent cells incubated for 1.5 hrs; type: functional, cell-based
B16-F10 [21] = assay: Inhibition of colony formation in mouse B16-F10 cells at 3 uM incubated for 6 days by crystal violet staining based analysis; type: functional; conditions: B16-F10, 144 h, time 6 day
B16-F10 [22] = assay: Inhibition of colony formation in mouse B16-F10 cells at 6 uM incubated for 6 days by crystal violet staining based analysis; type: functional; conditions: B16-F10, 144 h, time 6 day
SK-MEL-28 [23] = assay: Induction of cell cycle arrest in human SK-MEL-28 cells assessed as accumulation of cells at G2/M phase at 3 uM incubated for 24 hrs by PI staining based flow cytometry analysis; type: functional
B16-F10 [24] = assay: Induction of cell cycle arrest in mouse B16-F10 cells assessed as accumulation of cells at G2/M phase at 3 uM incubated for 24 hrs by PI staining based flow cytometry analysis; type: functional
B16-F10 [25] = assay: Induction of apoptosis in mouse B16-F10 cells at 8 uM measured for 24 hrs by Annexin V FITC/PI staining based flow cytometry analysis; type: functional, cell-based
SK-MEL-28 [26] = assay: Effect on ACTB mRNA expression in human SK-MEL-28 cells at 2 uM measured after 24 hrs by qRT-PCR analysis; type: functional, cell-based
SK-MEL-28 [27] = assay: Effect on ACTG1 mRNA expression in human SK-MEL-28 cells at 2 uM measured after 24 hrs by qRT-PCR analysis; type: functional, cell-based
SK-MEL-28 [28] = assay: Effect on ACTB level in human SK-MEL-28 cells at 2 uM measured after 24 hrs by Western blot analysis; type: functional, cell-based
SK-MEL-28 [29] = assay: Effect on ACTG1 level in human SK-MEL-28 cells at 2 uM measured after 24 hrs by Western blot analysis; type: functional, cell-based
SK-MEL-28 [30] = assay: Effect on PARVB level in human SK-MEL-28 cells at 2 uM measured after 24 hrs by Western blot analysis; type: functional, cell-based
LOX IMVI [31] = assay: Upregulation of PARVB mRNA expression in human LOX IMVI cells at 2 uM measured for 2 hrs by qPCR analysis; type: functional, cell-based
SK-MEL-28 [32] = assay: Upregulation of PARVB mRNA expression in human SK-MEL-28 cells at 2 uM measured for 2 hrs by qPCR analysis; type: functional, cell-based
SK-MEL-28 [33] = assay: Downregulation of ACTB level in human SK-MEL-28 cells at 2 uM measured for 24 hrs by qRT-PCR analysis; type: functional, cell-based
B16-F10 [34] = assay: Antitumor activity against mouse B16-F10 cells implanted in C57BL/6 mouse assessed as inhibition of tumor growth at 40 mg/kg, ip administered once daily from 6 to 9 days and every alternate days till 18; type: functional, organism-based; conditions: time 13.0 day
B16-F10 [35] = assay: Antitumor activity against mouse B16-F10 cells implanted in C57BL/6 mouse assessed as reduction of tumor weight at 40 mg/kg, ip administered once daily from 6 to 9 days and every alternate days till 18; type: functional, organism-based; conditions: time 13.0 day

C#C[C@]1(O)CC[C@H]2[C@@H]3CC=C4c5sc(Nc6ccccc6)nc5CC[C@]4(C)[C@H]3CC[C@@]21C
IC50 (B16-F10 [1]): 2.7 µM
IC50 (LOX IMVI [2]): 1.6 µM
IC50 (SK-MEL-28 [3]): 1.7 µM
IC50 (SK-MEL-25): 1.6 µM
IC50 (SK-MEL-5): 2.4 µM
Activity (B16-F10 [4]): Active
survival at 312 h [5]: ~80%
survival at 336 h [6]: 10%
Activity [7]: Non-toxic
Activity [8]: Non-toxic
Activity [9]: Non-toxic
Activity [10]: Non-toxic
Activity [11]: Non-toxic
Activity [12]: Non-toxic
Activity [13]: Non-toxic
Activity [14]: Non-toxic

C#C[C@]1(O)CC[C@H]2[C@@H]3CC=C4c5sc(-c6ccc(O)c(O)c6)nc5CC[C@]4(C)[C@H]3CC[C@@]21C
IC50 (B16-F10 [1]): 2.6 µM
IC50 (LOX IMVI [2]): 4.4 µM
IC50 (SK-MEL-28 [3]): 3.6 µM
IC50 (SK-MEL-25): 2.5 µM
IC50 (SK-MEL-5): 3.7 µM
inhibition (B16-F10 [15]): Active
inhibition (SK-MEL-28 [16]): Active
inhibition (B16-F10 [17]): Active
inhibition (SK-MEL-28 [18]): Active
inhibition (B16-F10 [19]): Active
inhibition (SK-MEL-28 [20]): Active
inhibition at 3 µM (B16-F10 [21]): 100%
inhibition at 6 µM (B16-F10 [22]): 100%
Activity (SK-MEL-28 [23]): Active
Activity (B16-F10 [24]): Active
Activity (B16-F10 [25]): Active
Activity (SK-MEL-28 [26]): Active
Activity (SK-MEL-28 [27]): Active
Activity (SK-MEL-28 [28]): Active
Activity (SK-MEL-28 [29]): Active
Activity (SK-MEL-28 [30]): Active
Activity (LOX IMVI [31]): Active
Activity (SK-MEL-28 [32]): Active
Activity (SK-MEL-28 [33]): Active
TGI (B16-F10 [34]): Active
Activity (B16-F10 [35]): Active
Activity (B16-F10 [4]): Active
survival at 312 h [5]: ~80%
survival at 336 h [6]: 80%
Activity [7]: Non-toxic
Activity [8]: Non-toxic
Activity [9]: Non-toxic
Activity [10]: Non-toxic
Activity [11]: Non-toxic
Activity [12]: Non-toxic
Activity [13]: Non-toxic
Activity [14]: Non-toxic

C[C@]12CCc3nc(Nc4ncccn4)sc3C1=CC[C@@H]1[C@@H]2CC[C@]2(C)C(=O)CC[C@@H]12
IC50 (B16-F10 [1]): 3 µM
IC50 (LOX IMVI [2]): > 20 µM
IC50 (SK-MEL-28 [3]): > 20 µM
IC50 (SK-MEL-25): 1.8 µM
IC50 (SK-MEL-5): 1.3 µM

C#C[C@]1(O)CC[C@H]2[C@@H]3CC=C4c5sc(Nc6cc(C)cc(C)n6)nc5CC[C@]4(C)[C@H]3CC[C@@]21C
IC50 (B16-F10 [1]): 10.2 µM
IC50 (LOX IMVI [2]): 4.1 µM
IC50 (SK-MEL-28 [3]): 5.5 µM
IC50 (SK-MEL-25): 6.5 µM
IC50 (SK-MEL-5): 2.5 µM

C#C[C@]1(O)CC[C@H]2[C@@H]3CC=C4c5sc(-c6ccc(O)cc6)nc5CC[C@]4(C)[C@H]3CC[C@@]21C
IC50 (B16-F10 [1]): 4.7 µM
IC50 (LOX IMVI [2]): 3.3 µM
IC50 (SK-MEL-28 [3]): 2.5 µM
IC50 (SK-MEL-25): 3.7 µM
IC50 (SK-MEL-5): 3.2 µM

COc1ccc(OC)c(Nc2nc3c(s2)C2=CC[C@@H]4[C@H](CC[C@]5(C)C(=O)CC[C@@H]45)[C@@]2(C)CC3)c1
IC50 (B16-F10 [1]): 6.4 µM
IC50 (LOX IMVI [2]): 6.2 µM
IC50 (SK-MEL-28 [3]): > 20 µM
IC50 (SK-MEL-25): > 20 µM
IC50 (SK-MEL-5): > 20 µM

C#C[C@]1(O)CC[C@H]2[C@@H]3CC=C4c5sc(Nc6ccncc6)nc5CC[C@]4(C)[C@H]3CC[C@@]21C
IC50 (B16-F10 [1]): 6.7 µM
IC50 (LOX IMVI [2]): 2.5 µM
IC50 (SK-MEL-28 [3]): 4.2 µM
IC50 (SK-MEL-25): 7.9 µM
IC50 (SK-MEL-5): 2.9 µM

Cc1ccc(Nc2nc3c(s2)C2=CC[C@@H]4[C@H](CC[C@]5(C)C(=O)CC[C@@H]45)[C@@]2(C)CC3)cc1
IC50 (B16-F10 [1]): 4.9 µM
IC50 (LOX IMVI [2]): 4.2 µM
IC50 (SK-MEL-28 [3]): 4 µM
IC50 (SK-MEL-25): 4.3 µM
IC50 (SK-MEL-5): 7.3 µM

C#C[C@]1(O)CC[C@H]2[C@@H]3CC=C4c5sc(Nc6ncccc6C)nc5CC[C@]4(C)[C@H]3CC[C@@]21C
IC50 (B16-F10 [1]): 2.9 µM
IC50 (LOX IMVI [2]): 4.8 µM
IC50 (SK-MEL-28 [3]): 2.4 µM
IC50 (SK-MEL-25): > 20 µM
IC50 (SK-MEL-5): 5.5 µM

C#C[C@]1(O)CC[C@H]2[C@@H]3CC=C4c5sc(-c6cccc(F)c6)nc5CC[C@]4(C)[C@H]3CC[C@@]21C
IC50 (B16-F10 [1]): 8.5 µM
IC50 (LOX IMVI [2]): 15.3 µM
IC50 (SK-MEL-28 [3]): 14 µM
IC50 (SK-MEL-25): > 20 µM
IC50 (SK-MEL-5): 20 µM
